According to patent US10668040B2, “Treatment of urea cycle disorders in neonates and infants” (Horizon Therapeutics, LLC, priority 2017, dated 2020):

Columns and labels:
Type in all cases: in vivo, human
[1] = Pharmacokinetics of HPN-100 and NaPBA, study HPN-100-005; conditions: HPN-100-005 (N = 11)
Text: (§1) The pharmacokinetics of the short term studies can be summarized as follows. Mean exposure levels of HPN-100 metabolites PBA, PAA, and PAGN after doses of HPN-100 and NaPBA with meals (TID) in pediatric (29 days to 17 years of age) UCD patients in HPN-100-005 and HPN-100-012 studies are summarized below. The mean exposure to PBA, the parent metabolite, and mean exposure to PAGN, the terminal metabolite, show no systematic variation across age groups, while PAA exposure tended to decrease with increasing age, a finding consistent with those from population PK modeling which indicate that the rate of clearance/metabolism of PAA varies directly with body size. While systemic metabolite exposure, assessed as peak plasma concentration (Cmax) or AUC, is generally similar for HPN-100 and NaPBA, the minimum concentration (Cmin-ss) was higher—and/or percent-fluctuation less—for plasma PAGN, a finding consistent with slower gastrointestinal absorption of PBA when administered orally as HPN-100.

[2] = tested on: pediatric patients with UCDs; experiment: HPN-100-012 switch-over study: 24-hour blood ammonia on HPN-100 vs NaPBA
Text: HPN-100-012 was an open-label, fixed sequence, switch-over study of the safety, PK and efficacy of HPN-100 compared to NaPBA in patients with UCDs, with a 12-month safety extension part. […] After review of all the safety data by the DSMB, 8 additional subjects were enrolled in the study after the switch-over phase was completed.

pediatric UCD patients = experiment: Pooled ammonia analyses from short term studies
Protocol: Pooled ammonia analyses from short term studies were also conducted.

[3] = Pharmacokinetics of HPN-100 and NaPBA, study HPN-100-012; conditions: HPN-100-012 (N = 15)
Text: as §1

Plasma PAA % Fluctuation ([1]; mean (CV %)): 3931 (85.1) %
Plasma PAA AUC0-24 ([1]; mean (CV %)): 773 (73.3) μg · h/mL
Plasma PAA CLss/F ([1]; mean (CV %)): 34391 (162.5) mL/min
Plasma PAA Cmax-ss ([1]; mean (CV %)): 75.1 (64.4) μg/mL
Plasma PAA Cmin-ss ([1]; mean (CV %)): 0.674 (130.5) μg/mL
Plasma PAGN % Fluctuation ([1]; mean (CV %)): 1917 (54.8) %
Plasma PAGN AUC0-24 ([1]; mean (CV %)): 1015 (44.7) μg · h/mL
Plasma PAGN CLss/F ([1]; mean (CV %)): 19739 (44.3) mL/min
Plasma PAGN Cmax-ss ([1]; mean (CV %)): 74.8 (37.3) μg/mL
Plasma PAGN Cmin-ss ([1]; mean (CV %)): 4.6 (66.4) μg/mL
Plasma PBA % Fluctuation ([1]; mean (CV %)): 1979 (123.7) %
Plasma PBA AUC0-24 ([1]; mean (CV %)): 236 (105.2) μg · h/mL
Plasma PBA CLss/F ([1]; mean (CV %)): 145463 (123.4) mL/min
Plasma PBA Cmax-ss ([1]; mean (CV %)): 37.4 (101.6) μg/mL
Plasma PBA Cmin-ss ([1]; mean (CV %)): 0.37 (171.3) μg/mL
U-PAGN Ae0-12 ([1]; mean (CV %)): 7098020 (47.5) μg
U-PAGN Ae12-24 ([1]; mean (CV %)): 5414406 (71.9) μg
U-PAGN Fe0-12 ([1]; mean (CV %)): 39.6 (30.0) %
U-PAGN Fe12-24 ([1]; mean (CV %)): 29.3 (52.8) %
U-PAGN Fe % dose ([1]; mean (CV %)): 69.0 (23.9) %
Plasma PAA Tmax-ss ([1]; median): 12.00 h
Plasma PAGN Tmax-ss ([1]; median): 12.00 h
Plasma PBA Tmax-ss ([1]; median): 12.00 h
Plasma PAA % Fluctuation ([3]; mean (CV %)): 1289 (102.8) %
Plasma PAA AUC0-24 ([3]; mean (CV %)): 1458 (211.3) μg · h/mL
Plasma PAA CLss/F ([3]; mean (CV %)): 94249 (243.7) mL/min
Plasma PAA Cmax-ss ([3]; mean (CV %)): 98.0 (152.1) μg/mL
Plasma PAA Cmin-ss ([3]; mean (CV %)): 49.2 (287.2) μg/mL
Plasma PAGN % Fluctuation ([3]; mean (CV %)): 1459 (74.1) %
Plasma PAGN AUC0-24 ([3]; mean (CV %)): 946 (75.5) μg · h/mL
Plasma PAGN CLss/F ([3]; mean (CV %)): 14360 (93.0) mL/min
Plasma PAGN Cmax-ss ([3]; mean (CV %)): 74.4 (61.3) μg/mL
Plasma PAGN Cmin-ss ([3]; mean (CV %)): 17.7 (159.6) μg/mL
Plasma PBA % Fluctuation ([3]; mean (CV %)): 5102 (75.9) %
Plasma PBA AUC0-24 ([3]; mean (CV %)): 483 (146.0) μg · h/mL
Plasma PBA CLss/F ([3]; mean (CV %)): 112093 (136.4) mL/min
Plasma PBA Cmax-ss ([3]; mean (CV %)): 60.4 (128.3) μg/mL
Plasma PBA Cmin-ss ([3]; mean (CV %)): 0.993 (227.3) μg/mL
Plasma PAA Tmax-ss ([3]; median): 8.00 h
Plasma PAGN Tmax-ss ([3]; median): 8.00 h
Plasma PBA Tmax-ss ([3]; median): 8.30 h
SMILES: O=C([O-])CCCc1ccccc1.[Na+] [NaPBA, sodium phenylbutyrate]
U-PAGN Ae ([1]; mean (CV %)): 12512426 (51.3) μg
Mean blood ammonia ([2]; 12-hour time point, HPN-100 Day 10, NaPBA Day 1): 41.03 µmol/L
Mean blood ammonia ([2]; 24-hour time point, NaPBA Day 1): 34.66 µmol/L
Mean blood ammonia levels following an overnight fast ([2]; pre-dose and 24 hours post dose): normal
abnormal ammonia values (pediatric UCD patients): 35%
